One experiment deals with JAK3 enzyme (Homo sapiens (Human), UniProt P52333). Put plainly: JAK3 isolated enzyme high ATP Caliper endpoint assay. Format: biochemical. The following applies: 400 μM ATP, read-out: JAK-3 IC50.
The test system of a further experiment is JAK1/3. In words: JAK1/3 whole cell reporter gene assay (IL-4 stimulated STAT6-beta-lactamase reporter). Format: cell-based. The following applies: Cellsensor STAT6-bla-RA-1 cell line, CD40 ligand and IL-4 stimulated.
Another experiment deals with JAK2 (Homo sapiens (Human), UniProt O60674). In words: JAK2 PathHunter assay (prolactin response, U2OS cell line). Format: cell-based. To be noted: PathHunter U2OS cell line expressing JAK2, prolactin challenge; read-out: JAK-2 IC50. On the procedure: JAK1 and JAK2 PathHunter Assay
4 mM stock solutions of test compounds are prepared and serially diluted in 100% DMSO. A standard curve using PF-00956980 at a top concentration of 10 mM is also prepared. High percentage effect (HPE) is defined by 10 mM PF-00956980 and 0% effect (ZPE) is defined by 100% DMSO. Plates containing 1 μl of serially diluted compound, standard and HPE/ZPE are diluted by addition of 65 μl compound diluent (PBS minus Ca^2+, minus Mg^2+ with 0.05% pluronic F127) using a Multidrop Combi. This dilutes test compounds to a top concentration of 60 μM. Final top assay concentration is 10 μM as the assay dilution factor is six. Final DMSO concentration is 0.25%.
Prolactin (Peprotech) is used for the agonist challenge. Prolactin is prepared at 40 μM in compound diluent to generate a stock solution and further diluted to 6 μM in compound diluent. A standard curve is prepared in compound diluent. Prolactin is also diluted to a concentration of 15 nM (2.5 nM fac). Antagonism of the JAK1 or JAK2 prolactin response is measured in the presence of prolactin at an approximate […], concentration for JAK1 and approximately EC100 for JAK2. […]
Assays are performed in Greiner white 384 well plates. […] Luminescence signal is read using an Envision. Test compound data are expressed as percentage inhibition defined by HPE and ZPE values for each plate. […]

In experiment [1] the test system is IFNγ production in human isolated PBMC. In words: hrIL2/haCD3 stimulated IFNγ production in human isolated PBMC. The format is cell-based. The following applies: IL-2/aCD3 stimulated IFNγ, 18 h. Here is the method: Functional Assessment of JAK Inhibitory Potency Using hrIL-2 and haCD3 stimuated IFNγ Production in Human Isolated PBMC.
(§1) Isolation of human Peripheral Blood Mononuclear Cells (PBMC)
Peripheral venous blood from healthy volunteers of either sex was collected into 50 ml centrifuge tubes (Corning) containing 1 ml of 5 mg/ml heparin (Sigma H3400) in distilled water. The heparininsed blood was diluted using an equal volume of sterile Dulbeccos phosphate buffered saline (PBS: Invitrogen 14190) before decanting into 50 ml Leucosep tubes (Sigma A0561). […]
180 μl of PBMC cell suspension was added to each well of a sterile 96 well, flat bottomed plate (Corning-Costar 3598). […] 100 μl supernatent was collected, diluted 1:4 and IFNγ content determined using a commercially available IFNγ ELISA kit (Invitrogen CHC1233) as per the manufacturer's instructions. Absorbances were measured using a Spectramax 190/250 plate reader (Molecular Devices). The IFNγ concentration of test wells was expressed as % of the IFNγ concentration produced in wells exposed to IL-2/aCD3 in the absence of test compound, and IC50 values determined using a 4 parameter curve fit.

For experiment [2], the system named is pYSTAT5 in PBMC lymphocytes. Put plainly: hrIL2/haCD3 stimulated pYSTAT5 in PBMC lymphocytes. The format is cell-based. To be noted: rhIL2 stimulated pYSTAT5, human PBMC lymphocytes. On the procedure:
as §1
Peripheral venous blood from healthy volunteers of either sex was collected into 50 ml centrifuge tubes (Corning) containing 1 ml of 5 mg/ml heparin (Sigma H3400) in distilled water. The heparininsed blood was diluted using an equal volume of sterile Dulbeccos phosphate buffered saline (PBS: Invitrogen 14190) before decanting into 50 ml Leucosep tubes (Sigma A0561). The Leucosep tubes were centrifuged at 400 g for 30 min at room temperature and the buffycoat at the Ficoll:Plamsa interface collected into clean centrifuge tubes and the volum made up to 50 ml using PBS and centrifuging at 200 g for 10 min at room temperature. The supernatent was discarded and the pellet resuspended in assay media (Dulbeccos Modified Essential Medium (DMEM: Invitrogen 11971025) containing 5% Foetal Bovine Serum, 100 U/mIpenicilin/100 μg/ml streptomycin (Sigma P4458) at 2×10^6 lymphocytes per ml for IFNγ experiments and at 1×10^6 lymphocytes per ml for the pYSTAT5 experiments.
hrIL2/haCD3 Stimulated pYSTAT5 in PBMC Lymphocytes
90 μl of PBMC cell suspension was added to each well of a 96 well plate (Corning-Costar 3598) along with 10 μl of test compound dilution giving a final assay concentration range of 0.03 nM to 1 μM in half log increments. […] Plates were read the next day on a FACS Canto (Becton Dickinson). […]

Experiment [3] has as its system pYSTAT5 in PBMC lymphocytes. Put plainly: Duration of action (DoA) after washout, pYSTAT5 in PBMC lymphocytes. To be noted: incubated at approximate IC80 for 1 h, then washed. The format is cell-based, human. On the procedure:
90 μl of PBMC cell suspension was added to each well of a 96 well plate (Corning-Costar 3598) along with 10 μl of test compound dilution giving a final assay concentration range of 0.03 nM to 1 μM in half log increments. The plates were incuated at 37° C., in […] for 1 h before 10 μl rhIL2 (3 μg/ml final assay concentration) was added to appropriate wells and the plates incubated at the stated conditions for a further 15 min. 25 μl of 20% formaldehyde (Tousimis) was added to all wells and the plates left at room temperature for 10 min prior to centrifugation at 400 g for 4 min at room temperature. 200 μl PBS was added to each well and centrifugation repeated as just described. The supernatent was removed and 50 μl of a 1:50 dilution of Mouse anti-human CD3 (BD Biosciences 555329) in 0.1% BSA (Sigma A7906)/PBS added to each well (excluding control wells) and the plates incubated at room temperature in the dark for 30 min. […] Plates were read the next day on a FACS Canto (Becton Dickinson). […]
For determination of compound duration of action (DoA) cells were incubated with compound at an approximate IC80 concentration for 1 h before being washed by cenrifugation and resuspension in assay media without compound. […] DoA was calculated as the time taken for the inhibition to reverse by 50% (T50%)

For another experiment, the target named is JAK1 enzyme (Homo sapiens (Human), UniProt P23458). In words: JAK1 isolated enzyme high ATP Caliper endpoint assay.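 Further: enzyme at 10 nM preincubated with inhibitor 30 min, then kinase reaction 120 min at room temperature, peptide phosphorylation read by microfluidic mobility shift with fluorescence, inhibition relative to HPE and ZPE plate controls.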 The format is biochemical. To be noted: 2.5 mM ATP, read-out: JAK-1 IC50.

The values below come from US8895544B2, “Indazoles” (Pfizer Limited, priority 2011, dated 2014).

Structures are written as SMILES.

JAK3 enzyme, sequence (P52333 whole entry): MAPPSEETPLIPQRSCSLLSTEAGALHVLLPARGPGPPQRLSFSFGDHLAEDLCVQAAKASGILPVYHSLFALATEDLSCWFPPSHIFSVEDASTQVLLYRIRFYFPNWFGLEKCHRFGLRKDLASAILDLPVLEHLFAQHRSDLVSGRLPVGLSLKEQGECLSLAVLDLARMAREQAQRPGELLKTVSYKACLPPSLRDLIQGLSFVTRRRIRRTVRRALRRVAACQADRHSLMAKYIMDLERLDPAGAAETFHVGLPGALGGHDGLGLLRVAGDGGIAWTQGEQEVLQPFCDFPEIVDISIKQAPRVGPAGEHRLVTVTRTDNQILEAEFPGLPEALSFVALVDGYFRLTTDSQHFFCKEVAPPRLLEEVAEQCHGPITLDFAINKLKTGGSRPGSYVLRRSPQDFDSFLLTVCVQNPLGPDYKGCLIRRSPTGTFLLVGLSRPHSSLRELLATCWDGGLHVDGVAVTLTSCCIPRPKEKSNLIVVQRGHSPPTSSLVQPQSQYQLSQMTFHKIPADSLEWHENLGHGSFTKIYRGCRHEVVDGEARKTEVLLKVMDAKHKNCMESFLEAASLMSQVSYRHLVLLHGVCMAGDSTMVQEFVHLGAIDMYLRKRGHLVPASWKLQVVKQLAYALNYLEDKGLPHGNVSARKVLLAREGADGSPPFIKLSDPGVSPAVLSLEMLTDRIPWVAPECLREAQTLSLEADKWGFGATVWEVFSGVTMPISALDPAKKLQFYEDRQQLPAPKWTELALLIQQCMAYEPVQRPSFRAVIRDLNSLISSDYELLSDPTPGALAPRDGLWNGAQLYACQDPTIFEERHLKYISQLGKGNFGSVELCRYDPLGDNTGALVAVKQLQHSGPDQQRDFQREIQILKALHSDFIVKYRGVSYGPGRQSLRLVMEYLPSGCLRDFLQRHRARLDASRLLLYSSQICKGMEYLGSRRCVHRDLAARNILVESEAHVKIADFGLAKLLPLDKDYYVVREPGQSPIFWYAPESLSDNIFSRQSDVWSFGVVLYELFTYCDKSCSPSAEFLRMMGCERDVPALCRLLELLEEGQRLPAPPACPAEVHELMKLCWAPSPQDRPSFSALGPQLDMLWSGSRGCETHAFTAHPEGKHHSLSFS
JAK2, sequence (O60674 whole entry): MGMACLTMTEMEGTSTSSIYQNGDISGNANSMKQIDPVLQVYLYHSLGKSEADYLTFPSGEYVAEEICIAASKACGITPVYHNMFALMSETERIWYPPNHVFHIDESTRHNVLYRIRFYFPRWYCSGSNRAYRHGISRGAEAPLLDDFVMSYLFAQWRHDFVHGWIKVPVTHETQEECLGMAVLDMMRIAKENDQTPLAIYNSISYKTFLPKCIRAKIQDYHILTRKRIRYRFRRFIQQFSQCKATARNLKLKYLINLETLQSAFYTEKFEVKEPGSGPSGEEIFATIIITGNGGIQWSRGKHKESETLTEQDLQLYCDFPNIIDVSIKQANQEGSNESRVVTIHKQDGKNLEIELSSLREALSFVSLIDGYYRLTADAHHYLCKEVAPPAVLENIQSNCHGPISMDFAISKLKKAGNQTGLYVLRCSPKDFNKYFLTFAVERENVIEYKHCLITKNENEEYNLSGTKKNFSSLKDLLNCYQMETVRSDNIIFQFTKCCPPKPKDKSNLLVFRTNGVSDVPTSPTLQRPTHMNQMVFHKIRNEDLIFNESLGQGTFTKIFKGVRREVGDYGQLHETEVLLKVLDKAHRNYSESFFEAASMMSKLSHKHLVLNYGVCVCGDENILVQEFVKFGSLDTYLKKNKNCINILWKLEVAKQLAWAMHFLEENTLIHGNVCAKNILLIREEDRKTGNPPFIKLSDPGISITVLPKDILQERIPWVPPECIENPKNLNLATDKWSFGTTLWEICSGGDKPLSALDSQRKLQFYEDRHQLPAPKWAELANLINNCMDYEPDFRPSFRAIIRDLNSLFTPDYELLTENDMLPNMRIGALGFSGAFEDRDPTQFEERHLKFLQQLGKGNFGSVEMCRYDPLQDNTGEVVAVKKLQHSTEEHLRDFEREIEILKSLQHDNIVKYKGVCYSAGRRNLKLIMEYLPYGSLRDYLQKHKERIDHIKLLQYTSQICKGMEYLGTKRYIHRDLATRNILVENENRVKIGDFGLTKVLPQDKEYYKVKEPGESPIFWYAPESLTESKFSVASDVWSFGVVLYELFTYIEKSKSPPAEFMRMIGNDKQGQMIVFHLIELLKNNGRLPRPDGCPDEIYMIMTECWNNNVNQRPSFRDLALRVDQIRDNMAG
JAK1 enzyme, sequence (P23458 whole entry): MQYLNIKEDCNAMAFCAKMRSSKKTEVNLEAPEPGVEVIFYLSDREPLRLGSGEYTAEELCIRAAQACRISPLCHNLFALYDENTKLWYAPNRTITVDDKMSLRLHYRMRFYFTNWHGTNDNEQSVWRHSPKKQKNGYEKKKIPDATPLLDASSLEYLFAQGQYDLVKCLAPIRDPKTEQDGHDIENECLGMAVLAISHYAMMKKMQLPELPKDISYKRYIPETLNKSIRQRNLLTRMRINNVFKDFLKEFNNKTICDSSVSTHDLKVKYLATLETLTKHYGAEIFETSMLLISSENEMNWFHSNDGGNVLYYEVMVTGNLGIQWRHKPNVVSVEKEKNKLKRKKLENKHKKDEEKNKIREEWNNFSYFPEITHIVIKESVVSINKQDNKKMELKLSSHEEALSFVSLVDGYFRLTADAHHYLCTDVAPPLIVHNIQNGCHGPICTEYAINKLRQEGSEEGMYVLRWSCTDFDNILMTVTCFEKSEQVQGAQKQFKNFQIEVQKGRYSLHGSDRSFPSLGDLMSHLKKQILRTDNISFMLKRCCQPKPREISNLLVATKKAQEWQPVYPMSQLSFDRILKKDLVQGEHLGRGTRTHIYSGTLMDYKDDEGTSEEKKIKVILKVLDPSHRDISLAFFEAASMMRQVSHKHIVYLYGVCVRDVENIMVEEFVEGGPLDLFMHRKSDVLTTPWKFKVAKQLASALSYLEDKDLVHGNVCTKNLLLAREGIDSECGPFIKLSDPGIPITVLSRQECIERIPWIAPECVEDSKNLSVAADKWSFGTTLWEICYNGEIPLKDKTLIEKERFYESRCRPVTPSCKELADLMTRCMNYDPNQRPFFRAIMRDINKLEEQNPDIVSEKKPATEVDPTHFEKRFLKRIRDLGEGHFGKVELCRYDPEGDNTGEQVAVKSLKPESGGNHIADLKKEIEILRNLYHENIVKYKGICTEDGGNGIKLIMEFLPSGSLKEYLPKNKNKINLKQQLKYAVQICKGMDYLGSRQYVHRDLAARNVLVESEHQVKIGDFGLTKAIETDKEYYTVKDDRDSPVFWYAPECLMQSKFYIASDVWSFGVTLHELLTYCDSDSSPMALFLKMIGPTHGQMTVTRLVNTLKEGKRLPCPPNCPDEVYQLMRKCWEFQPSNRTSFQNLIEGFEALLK
Method for JAK1 enzyme: JAK1 Isolated Enzyme High ATP Caliper Endpoint Assay
4 mM stock solutions of test compounds are prepared and serially diluted in 100% DMSO. A standard curve using PF-00956980 (commercially available from Sigma Aldrich) at a top concentration of 4 mM is also prepared. High percentage effect (HPE) is defined by 500 μM PF-00956980 and 0% effect (ZPE) is defined by 100% DMSO. Greiner 384 well plates are prepared containing 400 nl of serially diluted compound, standard and HPE/ZPE. Final top assay concentration is 80 μM as the assay dilution factor is fifty.
JAK1 enzyme (Invitrogen) stock solution is made up at 5.2 μM in sterile water. JAK1 enzyme stock is diluted to 20 nM in assay buffer (10 mM HEPES free acid pH 7.5, 10 mM HEPES free base pH 7.5, 10 mM MgCL2, 0.0005% Tween-20, 0.01% BSA) containing 2 mM DTT (all supplied by Sigma) with the addition of one protease tablet per 25 mls buffer (Roche). ATP is made up at 10 mM stock in sterile water and diluted to 5 mM in assay buffer. Peptide H236 (Caliper Life Sciences) is made up at 1.5 mM in 100% DMSO and diluted to 3 μM in assay buffer. Stop buffer comprises 140 mM HEPES, 22.5 mM EDTA (Sigma) and 0.15% coating reagent (Caliper Life Sciences).
Assays are performed in Greiner polypropylene 384 well plates. Following compound preparation within the plate 10 μl of enzyme in assay buffer containing DTT is added using a Multidrop Micro. Final assay concentration of enzyme is 10 nM. Compound and enzyme are pre-incubated for 30 minutes at room temperature using low evaporation lids before addition of 10 μl ATP/peptide mixture in assay buffer using a Multidrop Micro. Final assay concentrations are 2.5 mM ATP and 1.5 μM peptide. Plates are foil sealed and incubated for a further 120 minutes at room temperature. Stop solution is added to the plates (20 μl/well) using a Multidrop Micro and plates are loaded onto the Caliper EZReader II. Data is generated by the shift in mobility of non-phosphorylated peptide substrates and phosphorylated products by electrophoresis within a chip and detected via LED induced fluorescence. Data is analysed using LabChip EZReader software which calculates the relative heights of the substrate and product peaks and reports product/product plus substrate peak ratio. Test compound data are subsequently expressed as percentage inhibition defined by HPE and ZPE values for each plate. Percentage inhibition in the presence of test compound is plotted against compound concentration on a log scale to determine an IC50 from the resultant sigmoid curve.
Method for JAK1/3: JAK1/3 Whole Cell Reporter Gene Assay
4 mM stock solutions of test compounds are prepared and serially diluted in 100% DMSO. A standard curve using PF-00956980 at a top concentration of 10 mM is also prepared. High percentage effect (HPE) is defined by 10 mM PF-00956980 and 0% effect (ZPE) is defined by 100% DMSO. Plates containing 1 μl of serially diluted compound, standard and HPE/ZPE are diluted by addition of 39 μl assay media (Optimem with 100 uM NEAA, 10 uM sodium pyruvate and 100 U penicillin/100 ug streptomycin (Invitrogen)) using a Multidrop Combi. This dilutes test compounds to a top concentration of 100 μM. Final top assay concentration is 10 μM as the assay dilution factor is ten. Final DMSO concentration is 0.25%.
CD40 (Invitrogen) is prepared at 0.1 mg/ml in PBS minus Ca^2+, minus Mg^2+. The concentration of CD40 required for activation is predetermined by CD40 titration with the cell line. […]
Assays are performed in Greiner 384 well black polypropylene clear bottomed plates. The Invitrogen Cellsensor STATE-bla-RA-1 cell line is thawed, counted and resuspended at 1.88×10^6 cells/ml. […] Beta lactamase fluorescence signal is read at 460 nm (blue) and 530 nm (green) and a ratio calculated using an Envision. Test compound data are expressed as percentage inhibition defined by HPE and ZPE values for each plate. […]
Method for JAK3 enzyme: JAK3 Isolated Enzyme High ATP Caliper Endpoint Assay
4 mM stock solutions of test compounds are prepared and serially diluted in 100% DMSO. […] Greiner 384 well plates are prepared containing 400 nl of serially diluted compound, standard and HPE/ZPE. Final top assay concentration is 80 μM as the assay dilution factor is fifty.
JAK3 enzyme stock is diluted to 2 nM in assay buffer (10 mM HEPES free acid pH 7.5, 10 mM HEPES free base pH 7.5, 10 mM MgCL2, 0.0005% Tween-20, 0.01% BSA) containing 2 mM DTT (all supplied by Sigma). ATP is made up at 10 mM stock in sterile water and diluted to 800 μM in assay buffer. Peptide (American peptide company) is made up at 30 mM in 100% DMSO and diluted to 3 μM in assay buffer.
Assays are performed in Greiner polypropylene 384 well plates. Following compound preparation within the plate 10 μl of enzyme in assay buffer containing DTT is added using a Multidrop Micro. Final assay concentration of enzyme is 1 nM. Compound and enzyme are pre-incubated for 60 minutes at room temperature using low evaporation lids before addition of 10 μl ATP/peptide mixture in assay buffer using a Multidrop Micro. […] Plates are foil sealed and incubated for a further 60 minutes at room temperature. Stop solution is added to the plates (20 μl/well) using a Multidrop Micro and plates are loaded onto the Caliper EZReader II. Data is generated by the shift in mobility of non-phosphorylated peptide substrates and phosphorylated products by electrophoresis within a chip and detected via LED induced fluorescence. Data is analysed using LabChip EZReader software which calculates the relative heights of the substrate and product peaks and reports product/product plus substrate peak ratio. Test compound data are subsequently expressed as percentage inhibition defined by HPE and ZPE values for each plate. Percentage inhibition in the presence of test compound is plotted against compound concentration on a log scale to determine an IC50 from the resultant sigmoid curve.

Usually IC50 stands for the concentration needed to halve the response being measured. As to `CCc1cc(O)c(F)cc1-c1ccc2c(-c3nc4c([nH]3)CCN(C(=O)c3cnc(N5CCCCC5)cn3)C4)n[nH]c2c1` [Example 4, {2-[6-(2-Ethyl-5-fluoro-4-hydroxy-phenyl)-1H-indazol-3-yl]-1,4,6,7-tetrahydro-imidazo[4,5-c]pyridin-5-yl}-(5-piperidin-1-yl-pyrazin-2-yl)-methanone], the IC50 is 0.5 nM on JAK3 enzyme; 140 nM with JAK1/3; 176 nM at JAK2; 70 nM in experiment [1]; 45 nM in experiment [2]. Also, the “DoA (time taken for the inhibition to reverse by 50%, T50%)” value in experiment [3] was greater than 8.8 h.
Regarding `CCc1cc(O)c(F)cc1-c1ccc2c(-c3nc4c([nH]3)CCN(C(=O)c3ccc(C#N)nc3)C4)n[nH]c2c1` [Example 16, 5-{2-[6-(2-Ethyl-5-fluoro-4-hydroxy-phenyl)-1H-indazol-3-yl]-1,4,6,7-tetrahydro-imidazo[4,5-c]pyridine-5-carbonyl}-pyridine-2-carbonitrile], the IC50 amounted to 1.9 nM on JAK3 enzyme and 0.7 nM on JAK1 enzyme.
